According to ChEMBL document CHEMBL4308904 (Bioorg Med Chem, 2019):
Each block holds one molecule with its values, some of them ahead of it. Calls of active or inactive are those of the source. The rule behind the calls is not given here.

Experiments:
[1] = biological target: T1, Lysine-specific histone demethylase 1A (Homo sapiens, UniProt O60341)
Description: Inhibition of LSD1 (unknown origin) by fluorescence assay

[2] = biological target: T1, Lysine-specific histone demethylase 1A; assay: Inhibition of LSD1 (unknown origin)
MDA-MB-231 [3] = assay: Antiproliferative activity against human MDA-MB-231 cells assessed as reduction in EdU incorporation at 8 uM after 24 hrs by Hoechst 33342 staining-based confocal laser scanning microscopic analysis; type: functional, cell-based
MDA-MB-231 [4] = assay: Antiproliferative activity against human MDA-MB-231 cells transfected with LSD1 siRNA assessed as reduction in EdU incorporation at 8 uM after 24 hrs by Hoechst 33342 staining-based confocal laser scanning microscopic analysis; type: functional, cell-based
MDA-MB-231 [5] = assay: Induction of apoptosis in human MDA-MB-231 cells assessed as late apoptosis level at 8 uM after 24 hrs by Annexin V-FITC/propidium iodide staining-based flow cytometric analysis relative to control; type: functional
MDA-MB-231 [6] = assay: Induction of apoptosis in human MDA-MB-231 cells transfected with LSD1 siRNA assessed as chromatin condensation at 8 uM after 24 hrs by Hoechst 33342 staining-based confocal laser scanning microscopic analysis; type: functional, cell-based
MDA-MB-231 [7] = assay: Effect on LSD1 protein levels in human MDA-MB-231 cells up to 8 uM by Western blot analysis; type: functional, cell-based
MDA-MB-231 [8] = assay: Induction of apoptosis in human MDA-MB-231 cells transfected with LSD1 siRNA assessed as late apoptosis level at 8 uM after 24 hrs by Annexin V-FITC/propidium iodide staining-based flow cytometric analysis relative to control; type: functional
MDA-MB-231 [9] = assay: Induction of apoptosis in human MDA-MB-231 cells transfected with LSD1 siRNA assessed as increase in cleaved caspase-7 level at 8 uM after 24 hrs by Western blot analysis; type: functional, cell-based
MDA-MB-231 [10] = assay: Induction of apoptosis in human MDA-MB-231 cells transfected with LSD1 siRNA assessed as increase in cleaved caspase-9 level at 8 uM after 24 hrs by Western blot analysis; type: functional, cell-based
MDA-MB-231 [11] = assay: Antiproliferative activity against human MDA-MB-231 cells transfected with LSD1 siRNA after 24 hrs by MTT assay; type: functional, cell-based
MDA-MB-231 [12] = assay: Antiproliferative activity against human MDA-MB-231 cells transfected with NC siRNA after 24 hrs by MTT assay; type: functional, cell-based
[13] = biological target: T1, Lysine-specific histone demethylase 1A; assay: Inhibition of LSD1 in human MDA-MB-231 cells assessed as increase in H3K4me1 methylation by Western blot analysis; type: cell-based
MDA-MB-231 [14] = assay: Induction of apoptosis in human MDA-MB-231 cells assessed as loss of mitochondrial membrane potential at 8 uM after 24 hrs by JC-1 staining-based flow cytometric analysis; type: functional, cell-based
[15] = biological target: T1, Lysine-specific histone demethylase 1A; assay: Inhibition of LSD1 in human MDA-MB-231 cells assessed as increase in H3K4me2 methylation by Western blot analysis; type: cell-based
MDA-MB-231 [16] = assay: Induction of apoptosis in human MDA-MB-231 cells assessed as viable cells level at 8 uM after 24 hrs by Annexin V-FITC/propidium iodide staining-based flow cytometric analysis relative to control; type: functional
MDA-MB-231 [17] = assay: Induction of apoptosis in human MDA-MB-231 cells assessed as necrosis cells level at 8 uM after 24 hrs by Annexin V-FITC/propidium iodide staining-based flow cytometric analysis relative to control; type: functional
MDA-MB-231 [18] = assay: Induction of apoptosis in human MDA-MB-231 cells assessed as early apoptosis cells level at 8 uM after 24 hrs by Annexin V-FITC/propidium iodide staining-based flow cytometric analysis relative to control; type: functional
MDA-MB-231 [19] = assay: Induction of apoptosis in human MDA-MB-231 cells transfected with LSD1 siRNA assessed as early apoptosis cells level at 8 uM after 24 hrs by Annexin V-FITC/propidium iodide staining-based flow cytometric analysis relative to control; type: functional
[20] = biological target: Lysine-specific demethylase 5A (Homo sapiens) (UniProt P29375); assay: Inhibition of JARID1 in human MDA-MB-231 cells assessed as effect on H3K4me3 methylation by Western blot analysis; type: cell-based
MDA-MB-231 [21] = assay: Induction of apoptosis in human MDA-MB-231 cells transfected with LSD1 siRNA assessed as chromatinorrhexis at 8 uM after 24 hrs by Hoechst 33342 staining-based confocal laser scanning microscopic analysis; type: functional, cell-based
MDA-MB-231 [22] = assay: Induction of apoptosis in human MDA-MB-231 cells transfected with LSD1 siRNA assessed as loss of mitochondrial membrane potential at 8 uM after 24 hrs by JC-1 staining-based flow cytometric analysis; type: functional, cell-based
MDA-MB-231 [23] = assay: Inhibition of colony formation in human MDA-MB-231 cells transfected with LSD1 siRNA; type: functional, cell-based
MDA-MB-231 [24] = assay: Induction of apoptosis in human MDA-MB-231 cells transfected with LSD1 siRNA assessed as increase in BAX/Bcl-2 protein ratio at 8 uM after 24 hrs by Western blot analysis; type: functional, cell-based
MDA-MB-231 [25] = assay: Induction of apoptosis in human MDA-MB-231 cells assessed as increase in BAX/Bcl-2 protein ratio at 8 uM after 24 hrs by Western blot analysis; type: functional, cell-based
MDA-MB-231 [26] = assay: Induction of apoptosis in human MDA-MB-231 cells transfected with LSD1 siRNA assessed as increase in cleaved PARP level at 8 uM after 24 hrs by Western blot analysis; type: functional, cell-based
[27] = biological target: T1, Lysine-specific histone demethylase 1A; assay: Competitive inhibition of LSD1 (unknown origin) using H3Kme2 as substrate by Lineweaver-Burk plot analysis
MDA-MB-231 [28] = assay: Induction of apoptosis in human MDA-MB-231 cells transfected with LSD1 siRNA assessed as viable cells level at 8 uM after 24 hrs by Annexin V-FITC/propidium iodide staining-based flow cytometric analysis relative to control; type: functional
[29] = biological target: T1, Lysine-specific histone demethylase 1A; assay: Inhibition of LSD1 in human MDA-MB-231 cells assessed as increase in H3K9me2 methylation by Western blot analysis; type: cell-based
MDA-MB-231 [30] = assay: Induction of apoptosis in human MDA-MB-231 cells transfected with LSD1 siRNA assessed as necrosis cells level at 8 uM after 24 hrs by Annexin V-FITC/propidium iodide staining-based flow cytometric analysis relative to control; type: functional
MDA-MB-231 [31] = assay: Induction of apoptosis in human MDA-MB-231 cells transfected with LSD1 siRNA assessed as increase in cleaved caspase-3 level at 8 uM after 24 hrs by Western blot analysis; type: functional, cell-based

Lysine-specific demethylase 5A (Homo sapiens), sequence (P29375 whole entry): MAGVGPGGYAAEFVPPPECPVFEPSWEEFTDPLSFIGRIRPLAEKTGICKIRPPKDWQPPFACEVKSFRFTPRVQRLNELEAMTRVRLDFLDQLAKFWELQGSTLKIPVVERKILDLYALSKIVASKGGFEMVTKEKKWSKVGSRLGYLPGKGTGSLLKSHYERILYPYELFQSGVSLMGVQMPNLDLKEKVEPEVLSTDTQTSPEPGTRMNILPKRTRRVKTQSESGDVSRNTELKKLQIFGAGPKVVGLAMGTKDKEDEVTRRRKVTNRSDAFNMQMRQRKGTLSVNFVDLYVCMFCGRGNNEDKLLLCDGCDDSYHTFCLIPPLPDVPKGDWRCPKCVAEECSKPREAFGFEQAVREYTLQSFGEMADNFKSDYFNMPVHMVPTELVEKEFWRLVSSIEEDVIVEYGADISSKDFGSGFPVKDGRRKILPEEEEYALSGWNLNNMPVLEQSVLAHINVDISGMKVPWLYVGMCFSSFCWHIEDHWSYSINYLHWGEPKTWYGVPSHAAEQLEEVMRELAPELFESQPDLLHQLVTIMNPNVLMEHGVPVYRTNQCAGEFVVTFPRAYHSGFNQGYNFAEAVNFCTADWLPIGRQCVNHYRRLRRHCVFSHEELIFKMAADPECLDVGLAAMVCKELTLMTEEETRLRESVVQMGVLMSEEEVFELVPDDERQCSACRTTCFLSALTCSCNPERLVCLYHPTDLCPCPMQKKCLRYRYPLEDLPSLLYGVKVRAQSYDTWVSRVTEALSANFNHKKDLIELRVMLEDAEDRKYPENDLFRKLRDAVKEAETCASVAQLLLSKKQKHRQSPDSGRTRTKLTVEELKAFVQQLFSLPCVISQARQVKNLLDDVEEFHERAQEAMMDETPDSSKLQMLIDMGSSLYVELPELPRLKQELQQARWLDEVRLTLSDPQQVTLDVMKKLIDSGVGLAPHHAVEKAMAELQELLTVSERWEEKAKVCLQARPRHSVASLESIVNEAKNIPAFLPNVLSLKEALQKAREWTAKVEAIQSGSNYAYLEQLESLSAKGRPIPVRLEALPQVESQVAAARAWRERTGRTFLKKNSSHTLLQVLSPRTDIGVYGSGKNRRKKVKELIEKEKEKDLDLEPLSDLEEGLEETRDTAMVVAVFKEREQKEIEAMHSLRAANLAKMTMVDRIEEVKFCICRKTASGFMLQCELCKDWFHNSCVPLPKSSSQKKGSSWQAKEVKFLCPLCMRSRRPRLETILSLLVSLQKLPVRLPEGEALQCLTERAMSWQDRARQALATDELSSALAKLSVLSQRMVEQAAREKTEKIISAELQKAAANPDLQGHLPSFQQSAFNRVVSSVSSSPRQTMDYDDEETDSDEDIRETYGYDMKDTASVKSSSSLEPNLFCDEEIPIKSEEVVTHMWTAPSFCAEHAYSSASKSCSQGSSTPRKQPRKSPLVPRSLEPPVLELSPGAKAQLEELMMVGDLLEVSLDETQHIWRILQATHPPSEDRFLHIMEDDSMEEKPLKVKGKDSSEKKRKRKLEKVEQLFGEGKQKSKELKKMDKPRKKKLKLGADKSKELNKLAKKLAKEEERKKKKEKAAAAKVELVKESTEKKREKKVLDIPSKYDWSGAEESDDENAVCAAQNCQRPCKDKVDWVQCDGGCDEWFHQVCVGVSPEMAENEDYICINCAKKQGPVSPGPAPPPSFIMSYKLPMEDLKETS

SMILES: O=c1cc(-c2ccccc2)oc2cc(O)c(O)c(O)c12 [BAICALEIN]
- IC50 [2]: 12.5 µM

SMILES: COc1ccc([C@@H]2CC(=O)c3c(O)cc(O)cc3O2)cc1O [HESPERETIN]
- IC50 [1]: 78.8 µM

SMILES: COc1ccc([C@@H]2CC(=O)c3c(O)cc(O[C@@H]4O[C@H](CO[C@@H]5O[C@@H](C)[C@H](O)[C@@H](O)[C@H]5O)[C@@H](O)[C@H](O)[C@H]4O)cc3O2)cc1O [HESPERIDIN]
- IC50 [1]: 19.2 µM

SMILES: COc1ccc(-c2oc3c(CC=C(C)C)c(O)cc(O)c3c(=O)c2O)cc1 [ICARITIN]
- IC50 [1]: 64.5 µM

SMILES: O=c1c(O)c(-c2ccc(O)c(O)c2)oc2cc(O)cc(O)c12 [QUERCETIN]
- IC50 [1]: 1.26 µM

The next lines start with results.

- IC50 [1]: 4.74 µM
SMILES: COc1ccc([C@@H]2CC(=O)c3c(O)cc(O[C@@H]4O[C@H](CO)[C@@H](O)[C@H](O)[C@H]4O)cc3O2)cc1O

- IC50 [2]: 2.98 µM
SMILES: COc1c(O[C@@H]2O[C@H](C(=O)O)[C@@H](O)[C@H](O)[C@H]2O)cc(O)c2c(=O)cc(-c3ccccc3)oc12

- IC50 [1]: 21.8 µM
SMILES: COc1ccc(-c2cc(=O)c3c(O)cc(O[C@@H]4O[C@H](CO)[C@@H](O)[C@H](O)[C@H]4O)cc3o2)cc1O

- IC50 [1]: 16.7 µM
SMILES: COc1ccc(-c2oc3c(CC=C(C)C)c(O)cc(O)c3c(=O)c2O[C@@H]2O[C@@H](C)[C@H](O)[C@@H](O)[C@H]2O)cc1

- IC50 [2]: 3.55 µM
SMILES: O=C(O)[C@H]1O[C@@H](Oc2cc3oc(-c4ccccc4)cc(=O)c3c(O)c2O)[C@H](O)[C@@H](O)[C@@H]1O [BAICALIN]

- IC50 [1]: 0.95 µM
- inhibition [13]: Active
- inhibition [15]: Active
- inhibition [20]: inactive
- Ki [27]: 1 µM
- inhibition [29]: Active
SMILES: O=c1c(O[C@@H]2O[C@H](CO)[C@@H](O)[C@H](O)[C@H]2O)c(-c2ccc(O)c(O)c2)oc2cc(O)cc(O)c12 [ISOQUERCETIN]
- Activity (MDA-MB-231 [3]): Active
- Activity (MDA-MB-231 [4]): Active
- Activity (MDA-MB-231 [5]): 10.7%
- Activity (MDA-MB-231 [6]): Active
- Activity (MDA-MB-231 [7]): inactive
- Activity (MDA-MB-231 [8]): 38.9%
- Activity (MDA-MB-231 [9]): Active
- Activity (MDA-MB-231 [10]): Active
- Activity (MDA-MB-231 [11]): Active
- Activity (MDA-MB-231 [12]): Active
- Activity (MDA-MB-231 [14]): Active
- Activity (MDA-MB-231 [16]): 82.6%
- Activity (MDA-MB-231 [17]): 2.6%
- Activity (MDA-MB-231 [18]): 1%
- Activity (MDA-MB-231 [19]): 3.5%
- Activity (MDA-MB-231 [21]): Active
- Activity (MDA-MB-231 [22]): Active
- inhibition (MDA-MB-231 [23]): Active
- Activity (MDA-MB-231 [24]): Active
- Activity (MDA-MB-231 [25]): Active
- Activity (MDA-MB-231 [26]): Active
- Activity (MDA-MB-231 [28]): 56.1%
- Activity (MDA-MB-231 [30]): 1.5%
- Activity (MDA-MB-231 [31]): Active

- IC50 [1]: 2.16 µM
SMILES: C[C@@H]1O[C@@H](OC[C@H]2O[C@@H](Oc3c(-c4ccc(O)c(O)c4)oc4cc(O)cc(O)c4c3=O)[C@H](O)[C@@H](O)[C@@H]2O)[C@H](O)[C@H](O)[C@H]1O [RUTIN]
